Each block holds one compound with its values, some of them ahead of it.
Experiments:
HCT116 cells [1] = test: In vitro cytotoxicity assay, CellTiter-Blue; format: cell-based, human
Description: In vitro cytotoxicity assay. Cell viability was evaluated using the Promega CellTiter-Blue® Cell Viability assay. It uses the indicator dye resazurin to measure the metabolic capacity of cells—an indicator of cell viability. Viable cells retain the ability to reduce resazurin into resorufin, which is highly fluorescent. […] HCT116 cells were seeded at a density of 5×10^4 cells per well in 96-well flat-bottom plates and incubated in 10% FBS-medium for 24 hours. […] After 24 hours incubation, cells were washed with phosphate buffered saline (PBS, Amresco Biotechnolgy grade) and incubated with 20 μL of CellTiter-Blue® Reagent for additional 6 hours at 37° C. The fluorescence corresponding to the resorufin (which reflects the relative viable cell number) was measured at 590 nm using a Synergy H1 Hybrid Reader Biotek. The measurement was performed on untreated cells as a blank control.

HeLa cells [2] = test: In vitro cellular uptake in HeLa cells (fluorescence microscopy); format: cell-based
HeLa cells [3] = test: Morphology of HeLa cells after hyperthermia and chemotherapy; format: cell-based; details: one-hour hyperthermia, confocal microscopy
Description: Morphology of the cells after hyperthermia and chemotherapy. To assess changes in cell morphology, HeLa cells (˜50000 cells/mL) were cultured in petri-dishes and incubated at 37° C. After 24 hours, DMEM was removed, replaced with the following solutions: DMEM (control), Dox ([Dox]=76 μM) and Dox-CB[7]NPs ([Dox]=76 μM, [Iron]=0.04 M) and incubated for 2 hours. After the treatment, the cells were washed with PBS 3 times and 1 mL of DMEM was added. One petri-dish from each condition was subjected to one hour of magnetic hyperthermia (frequency=464 kHz, current=26.8 kAm^−1) while other petri-dishes were used as control.
After magnetic hyperthermia treatment, DMEM was removed, the cells were washed with PBS three times and 1 ml of prepared formaldehyde solution (Vformaldehyde=1 mL, Vdistilled water=9 mL) was added to the cells for […] to fix them. After removal of formaldehyde solution the cells were allowed to dry at room temperature for 48 hours in a dark place to prevent photodegradation of Dox. Confocal microscopy used observe changes in the morphology of treated cells compared to control cells.

HeLa cells [4] = test: In vitro hyperthermia treatment, HeLa cell viability; format: cell-based; details: 2 hours incubation, with or without hyperthermia treatments
Description: Cell viability tests in presence and in absence of AMF were performed in order to evaluate the effect of combined treatments (hyperthermia and chemotherapy) on HeLa cell viability (FIG. 31). Hela cells were incubated for two hours with no additives, Dox, CB[7]NPs or Dox-CB[7]NPs. Selected samples were then subjected to an alternating magnetic field (464 kHz) for one hour. […] The lack of significant cytotoxicity in the cells incubated with Dox or CB[7]NPs is consistent with the limited cellular uptake of the free drug or the lack of toxicity of the nanocarrier respectively.
In vitro hyperthermia treatment. Viability tests on HeLa cells were performed to investigate the combined effect of both hyperthermia and chemotherapy treatment. Petri-dishes were seeded with HeLa cells (˜50000 cells/mL) and incubated at 37° C. After 24 hours, DMEM was removed, replaced with the following solutions: DMEM (control), Dox ([Dox]=76 μM) and Dox-CB[7]NPs ([Dox]=76 μM, [Iron]=0.04 M) and incubated for 2 hours. […] Two cell viability readings were taken, immediately after hyperthermia treatment and 18 hours after hyperthermia. For cell viability studies 200 μL of CTB per 1 mL of DMEM was added to each petri-dish and incubated for 6 hours after which the medium with CTB was transferred to 96 well plate to take the fluorescence reading.

HCT116 cells [5] = test: cells; details: Homo sapiens, HCT-116, 48 h
Description: In order to determine the effectiveness of our nanoparticle system, we conducted a cancer cell viability study on our nanoparticle-drug system and compared it to effectiveness of the free drug (without the NP system). The Promega CellTiter-Blue® Cell Viability Assay was used. The drug, in one condition, and the Drug-NP complex, in another, were incubated with HCT-116 colon cancer cells for 48 hours. Different concentrations of the drug were used (ranging from 0 nM to 500 nM). After the designated incubation time, the IC50—the concentration of the drug needed to inhibit 50% of the cancer cells incubated—was then measured for both conditions.

Compound: cucurbit[7]uril [CB[7]]
- cytotoxic effects (HCT116 cells [1]; 24 hours of incubation, concentrations as high as 100 μM): Neither CB[7] nor CB[7]NPs displayed cytotoxic effects
- cytotoxic effects (HCT116 cells [1]; CB[7] concentrations of 1 to 100 μM, 24 hour incubation): neither CB[7] nor CB[7]NPs elicit cytotoxic effects

Compound: COc1cccc2c1C(=O)c1c(O)c3c(c(O)c1C2=O)C[C@@](O)(C(=O)CO)C[C@@H]3O[C@H]1C[C@H](N)[C@H](O)[C@H](C)O1 [Dox, Doxorubicin]
- fluorescence of treated cells (HeLa cells [2]; 2 hours, [DOX]=10 μM): weakly fluorescent
- normalized fluorescence intensity relative to red emission of Dox-CB[7]NPs (HeLa cells [2]; 3 hours at 37° C., same dose of Dox, excitation at 488 nm): 40%
- cell morphology after hyperthermia session (HeLa cells [3]): normal morphology
- reduction in viability (HeLa cells [4]): Minimal reductions in viability

- IC50 (HCT116 cells [5]): 71 nM
Compound: CC(=O)O[C@H]1C(=O)[C@@]2(C)[C@H]([C@H](OC(=O)c3ccccc3)[C@]3(O)C[C@H](OC(=O)[C@H](O)[C@@H](NC(=O)c4ccccc4)c4ccccc4)C(C)=C1C3(C)C)[C@]1(OC(C)=O)CO[C@@H]1C[C@@H]2O [Paclitaxel]

From patent US9849194B2, “Compositions and methods for imaging and treatment” (New York University, priority 2014, dated 2017)
